Experimental findings from ChEMBL document CHEMBL1201862, “PubChem BioAssay data set” (2004) are described below.

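Growth conditions: 96-well plates. Treatment: test compound, 48 hours, 5 concentrations. Analysis: linear interpolation between bracketing concentrations; unreached endpoints set to highest concentration. GI50 marks 50% less growth.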 Activity calls are given as the source filed them. No stated cut-off is given here; in the data, active = GI50 up to about 1.1 µM and inactive = higher.

Some test systems named below: RXF 393; HL-60; HCC 2998; CAKI-1; SK-MEL-2; OVCAR-3; HOP-62; HCT-116; UO-31; NCI-H522; CCRF-CEM; UACC-257; K562; OVCAR-4; TK-10; COLO 205; ACHN; LOX IMVI; NCI-H226; SF-539.
Common to all, as to assay: DTP human tumour cell line panel, 48 h

One may read the GI50 as the concentration giving 50% growth inhibition. For the compound `COc1cccc2[s+]snc12`, the GI50 with RXF 393 is 67 µM (inactive); in the test with HL-60 it was 23.9 µM (inactive); with HCC 2998, > 100 µM (inactive); with CAKI-1, 66.1 µM (inactive); with SK-MEL-2, 27.2 µM (inactive); with OVCAR-3 it was > 100 µM (inactive). Besides, the GI50 is 61.7 µM (inactive) with HOP-62; 45.4 µM (inactive) with HCT-116; 25.1 µM (inactive) in the test on UO-31; > 10 µM (inactive) with NCI-H522; > 10 µM (inactive) with CCRF-CEM; 30.1 µM (inactive) with UACC-257. The GI50 in the test on K562 was 25.7 µM (inactive); in the test with OVCAR-4, 43.9 µM (inactive); with TK-10, > 100 µM (inactive); with COLO 205, > 100 µM (inactive); with ACHN it was 47.8 µM (inactive); with LOX IMVI, 33.6 µM (inactive). Besides, the GI50 was > 100 µM (inactive) in the test on NCI-H226 and 35.8 µM (inactive) in the test on SF-539.

With `Nc1nc2cc(COc3ccc(C(=O)O)cc3)ccc2nc1-c1ccccc1`, the GI50 in the test with RXF 393, in the test with HL-60, in the test on HCC 2998, with CAKI-1, with SK-MEL-2 and in the test with OVCAR-3 was > 10 µM (inactive) throughout. Also, the GI50 in the test with HOP-62, in the test with UO-31, in the test with NCI-H522, in the test on CCRF-CEM, in the test with UACC-257 and with K562 was > 10 µM (inactive) in each case. The GI50 in the test with OVCAR-4, in the test with TK-10, in the test with COLO 205, in the test on ACHN, in the test with LOX IMVI and in the test on NCI-H226 was > 10 µM (inactive) in each case. Besides, the GI50 in the test on SF-539 is > 10 µM (inactive).

Turning to `CC1=C(C(=O)Nc2cccc(Cl)c2)C(c2ccccc2O)C(C(=O)Nc2cccc(Cl)c2)=C(C)N1`, the GI50 in the test with RXF 393 was 17.2 µM (inactive); with HL-60, 21 µM (inactive); in the test on HCC 2998, 18.9 µM (inactive); in the test on CAKI-1 it was 22 µM (inactive); in the test on SK-MEL-2, 16.1 µM (inactive); in the test with OVCAR-3, 20.6 µM (inactive). Moreover, the GI50 in the test with HOP-62 was 19.3 µM (inactive); in the test on UO-31 it was 17.2 µM (inactive); with NCI-H522 it was 17.1 µM (inactive); in the test on CCRF-CEM, 22.3 µM (inactive); with UACC-257 it was 20.2 µM (inactive); in the test with K562, 22.4 µM (inactive). For the same compound, the GI50 is 18.3 µM (inactive) in the test on OVCAR-4; 18.9 µM (inactive) with TK-10; 20 µM (inactive) in the test with COLO 205; 23.7 µM (inactive) in the test on ACHN; 21.8 µM (inactive) with LOX IMVI; 17.7 µM (inactive) in the test with NCI-H226. Also, the GI50 with SF-539 was 16.7 µM (inactive).

Regarding `CC(=O)NNc1nc(C)c(C(=O)NNC(=O)C(=O)Nc2ccc([N+](=O)[O-])cc2[N+](=O)[O-])s1`, the GI50 is 80.4 µM (inactive) in the test on RXF 393; 64.9 µM (inactive) with HL-60; > 100 µM (inactive) in the test with HCC 2998; 57.1 µM (inactive) with CAKI-1; > 100 µM (inactive) in the test on SK-MEL-2; > 100 µM (inactive) with HOP-62. The GI50 in the test on HCT-116 was > 100 µM (inactive); in the test on UO-31, > 100 µM (inactive); in the test on NCI-H522 it was 30.6 µM (inactive); with CCRF-CEM it was 22.3 µM (inactive); in the test with UACC-257 it was > 100 µM (inactive); in the test on K562, 39.4 µM (inactive). For the same compound, the GI50 in the test on OVCAR-4, in the test on TK-10, in the test on COLO 205, in the test with ACHN, in the test on LOX IMVI and in the test with NCI-H226 was > 100 µM (inactive) throughout. Also, in the test with SF-539, the GI50 was > 100 µM (inactive).

As for `CC1(C)C(N2CCOCC2)CS1(=O)=O` (stereo unspecified), the GI50 with RXF 393, in the test with HL-60, in the test on HCC 2998, in the test on CAKI-1, with SK-MEL-2 and in the test on OVCAR-3 was > 10 µM (inactive) each time. Moreover, the GI50 in the test with HOP-62, in the test on HCT-116, with UO-31, in the test with NCI-H522, with CCRF-CEM and in the test with UACC-257 was > 10 µM (inactive) in each case. For the same compound, the GI50 in the test with K562, in the test with OVCAR-4, in the test on TK-10, in the test with COLO 205, in the test with ACHN and with LOX IMVI was > 10 µM (inactive) in each case. Also, the GI50 with NCI-H226 and in the test with SF-539 was > 10 µM (inactive) in each case.

As to `CSc1nc(SC)c2cnn(CC3CO3)c2n1` (stereo unspecified), the GI50 was 17.8 µM (inactive) in the test on RXF 393; 17.5 µM (inactive) in the test on HL-60; 17.4 µM (inactive) with HCC 2998; 16.7 µM (inactive) with SK-MEL-2; 25.1 µM (inactive) with OVCAR-3; 18.7 µM (inactive) with HOP-62. The GI50 was 13.4 µM (inactive) in the test with HCT-116; 19.5 µM (inactive) in the test on UO-31; 26.2 µM (inactive) in the test on NCI-H522; 12.4 µM (inactive) in the test on CCRF-CEM; 19.2 µM (inactive) with UACC-257; 26.5 µM (inactive) in the test on K562. Also, the GI50 was 20.7 µM (inactive) in the test on OVCAR-4; 18.7 µM (inactive) in the test on COLO 205; 7.59 µM (inactive) in the test on LOX IMVI; 17.9 µM (inactive) with NCI-H226; 19.5 µM (inactive) with SF-539.

Turning to `COc1ccc(NC(=O)C(=O)C(C(=O)c2ccccc2)C2OC(=O)c3ccccc32)c([N+](=O)[O-])c1` (stereo unspecified), the GI50 in the test on RXF 393, with HL-60, with HCC 2998, with CAKI-1, in the test on SK-MEL-2 and in the test with HOP-62 was > 100 µM (inactive) throughout. In addition, the GI50 in the test with HCT-116, in the test with UO-31, in the test on NCI-H522, in the test on CCRF-CEM, with UACC-257 and in the test on K562 was > 100 µM (inactive) each time. In addition, the GI50 in the test on OVCAR-4, in the test on TK-10, in the test with COLO 205, with ACHN, in the test on LOX IMVI and with NCI-H226 was > 100 µM (inactive) in each case. In the test with SF-539, the GI50 was > 100 µM (inactive).

Take `COc1cccc2c1C(=O)c1c(O)c3c(c(O)c1C2=O)CC(O)(C(=O)CO)CC3OC1CC(N)C(I)C(C)O1` (stereo unspecified): the GI50 in the test with RXF 393 was 2.44 µM (inactive); in the test on HL-60 it was 0.428 µM (active); in the test on HCC 2998 it was 13.5 µM (inactive); with CAKI-1, 2.87 µM (inactive); in the test on SK-MEL-2, 9.79 µM (inactive); in the test with OVCAR-3, > 33.4 µM (inactive). Further, the GI50 in the test on HOP-62 is 1.6 µM (inactive); in the test on HCT-116 it was 0.573 µM (active); in the test on UO-31, 4.88 µM (inactive); with NCI-H522, 2.9 µM (inactive); with CCRF-CEM, 1.08 µM (active); with UACC-257 it was > 29.3 µM (inactive). The GI50 in the test with K562 was 4.76 µM (inactive); in the test with OVCAR-4, 4.01 µM (inactive); in the test on COLO 205 it was 13.3 µM (inactive); in the test with LOX IMVI, 1.45 µM (inactive); with NCI-H226, 0.787 µM (active); in the test with SF-539, 2.62 µM (inactive).
